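The compound was tested at five concentrations on cells cultured in 96-well plates, with a 48-hour exposure period. The concentration for 50% growth inhibition is given as GI50.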 Activity calls are given as the source filed them. Rule as the data show it: active = GI50 up to about 1.1 µM and inactive = higher.
Legend:
Experiment in all cases: NCI anticancer screen, dose series, 48 h
[1] = system: HOP-62
[2] = system: UO-31
[3] = system: OVCAR-8
[4] = system: DU-145
[5] = system: OVCAR-5
[6] = system: HCC 2998
[7] = system: MDA-MB-231
[8] = system: MCF7
[9] = system: NCI-H226
[10] = system: MDA-MB-435
[11] = system: Hs-578T
[12] = system: HCT-116
[13] = system: RPMI-8226
[14] = system: SR
[15] = system: SN12C
[16] = system: TK-10
[17] = system: HOP-92
[18] = system: BT-549

Measured: GI50

c1ccc(CSC2(SCc3ccccc3)CCCC2)cc1
inactive: [1] > 10 µM | [2] > 10 µM | [3] > 10 µM | [4] > 10 µM | [5] > 10 µM | [6] > 10 µM | [7] > 10 µM | [8] > 10 µM | [9] > 10 µM | [10] > 10 µM | [11] 6.97 µM | [12] > 10 µM | [13] > 10 µM | [14] > 10 µM | [15] > 10 µM | [16] > 10 µM

CC1(C)CC(=O)C2=C(C1)OC1=C(CC(C)(C)CC1=O)C2c1ccccc1[N+](=O)[O-] (stereo not drawn)
inactive: [1] > 100 µM | [2] 2 µM | [4] > 100 µM | [5] > 100 µM | [6] > 100 µM | [7] > 100 µM | [17] > 100 µM | [9] > 100 µM | [10] > 100 µM | [11] > 100 µM | [12] > 100 µM | [13] > 100 µM | [14] > 100 µM | [15] > 100 µM | [16] > 100 µM

c1ccc(C(NC2=NCCO2)c2ccccc2)cc1
inactive: [1] > 10 µM | [2] > 10 µM | [3] > 10 µM | [4] > 10 µM | [5] > 10 µM | [6] > 10 µM | [7] > 10 µM | [8] 6 µM | [9] > 10 µM | [10] > 10 µM | [11] > 10 µM | [12] > 10 µM | [13] > 10 µM | [14] > 10 µM | [15] > 10 µM | [16] > 10 µM

CC(=O)OC(OC(C)=O)n1cc(C=O)c2ccccc21
inactive: [1] > 100 µM | [2] 63.5 µM | [3] > 100 µM | [4] > 100 µM | [5] > 100 µM | [6] > 100 µM | [7] > 100 µM | [8] 25.9 µM | [9] > 100 µM | [11] > 100 µM | [12] > 100 µM | [13] > 100 µM | [14] > 100 µM | [15] > 100 µM | [16] > 100 µM

Cc1cc(C)n(C(=C(C(Cl)=C(Cl)Cl)[N+](=O)[O-])n2nc(C)cc2C)n1
inactive: [1] 5.04 µM | [2] 3.18 µM | [3] 3.06 µM | [4] 4.12 µM | [5] 7.93 µM | [6] 3.19 µM | [7] 7.41 µM | [18] 4.56 µM | [8] 2.55 µM | [17] 2.72 µM | [9] 5.66 µM | [10] 2.19 µM | [11] 4.66 µM | [12] 3.65 µM | [15] 3.98 µM | [16] 3.39 µM

CN(/N=C1\C(=O)Nc2ccccc21)c1ccccc1
inactive: [1] 49.7 µM | [2] 11.8 µM | [3] 26.4 µM | [4] > 100 µM | [5] 45.6 µM | [6] > 100 µM | [7] 9.4 µM | [8] 15.3 µM | [17] 22.5 µM | [9] > 100 µM | [10] > 100 µM | [11] 29.6 µM | [12] 57.8 µM | [13] 74.3 µM | [14] 94 µM | [16] 69.2 µM

CC(=O)C1CC[C@@H]2[C@H](CC[C@]3(C)[C@@H](O)CC[C@@H]23)[C@H]1C(=O)O (stereo partly drawn)
inactive: [1] > 100 µM | [2] > 100 µM | [3] > 100 µM | [5] > 100 µM | [6] > 100 µM | [7] > 100 µM | [18] > 100 µM | [8] > 100 µM | [17] > 100 µM | [10] > 100 µM | [11] 74.1 µM | [13] > 100 µM | [14] > 100 µM | [16] > 100 µM

Source: ChEMBL document CHEMBL1201862, “PubChem BioAssay data set” (2004)
